As a reminder, the melting point is the temperature, or range, at which the solid turns liquid.

This passage reports melting point results from a melting point compilation (Tetko et al.; mined from patent text by program, amines drawn as free bases though some values may be those of a salt).

As to `CCC1CC(=O)c2cc(C(C)C(N)=O)ccc2O1` (centres undefined), the melting point was 148 to 150 °C.

In turn, `COC(=O)c1c(-c2ccc(Cl)cc2)ccnc1Br` yielded a melting point of 73 to 76 °C.

On to `C[C@]12C(=O)[C@]3(C)O[C@]3(C)C(=O)[C@H]1[C@H]1C=C[C@@H]2C1` (racemic), for which the melting point was 72 to 73 °C.

Molecule `CC1(C)C(=O)Oc2ccc3ccc(C=O)cc3c21` yielded a melting point of 135 to 137 °C.

`CN(C(=O)Cc1cccc2ccccc12)C1c2ccccc2CC1N1CCCC1` (centres undefined) showed a melting point of 127 °C.

`COC(=O)C1(N(C)C(=O)Cc2c(C)cc(C)cc2C)CCN(OC)CC1` returned a melting point of 133 to 135 °C.

On to `c1ccc(Nc2ncnc3cnccc23)cc1`, for which the melting point was determined as 161 °C.

`CN1CCN(c2ccc(-c3cnc4c(c3)N(Cc3cc(F)ccc3F)CCN4)cn2)CC1` yielded a melting point of 192 to 193 °C.

With `Cc1cc2c(c(C)c1N)C(c1ccc(C(C)C)cc1)CS2` (centres undefined), the melting point is 121 to 122 °C.

On to `C=C(C)[C@H]1CC[C@@](C)(O)[C@H](NC23CC4CC(CC(C4)C2)C3)C1`, for which the melting point was in the range of 94 to 96 °C.

Turning to `CCOC(=O)C(C=O)c1csc(NC=O)n1` (centres undefined), the melting point was in the range of 179 to 180 °C.

Molecule `CC(C)(C)OC(=O)N1CCC(c2nc3cc(-c4ccc(S(C)(=O)=O)cc4F)ccc3[nH]2)CC1` showed a melting point of 88 to 92 °C.

With `CCn1c(CC(=O)NOCc2ccccc2)nc2cc(F)c(N3CCN(C)CC3)cc21`, the melting point fell in the range of 165 to 168 °C.

In turn, `O=C(OCCn1ccnc1)c1ccccc1O` showed a melting point of 74 to 75 °C.

For the molecule `O=C(O)CC1CCOc2ccc(Cl)cc21` (centres undefined), the melting point was 115 to 117 °C.

As to `CC1(C)N=C(c2ccccc2Cl)c2cc([N+](=O)[O-])ccc2-n2cnnc21`, the melting point worked out at 262 °C.

`Clc1nc2ccccc2nc1OCCOc1ccccc1`: the melting point is 99.5 to 102 °C.

For the molecule `C[C@@H](n1cnc2cc(Br)c(F)cc2c1=O)[C@](O)(Cn1cncn1)c1ccc(F)cc1F`, the melting point is 185 to 186 °C.

The molecule `COc1cccc(OC)c1Cl` yielded a melting point of 69 to 71 °C.

On to `O=C(O)c1ccc(-n2nnnc2S)cc1`, for which the melting point was determined as 198 °C.

Take `CC(=O)NC1(C)CCN(Cc2ccccc2)C1` (centres undefined): the melting point was in the range of 105 to 106 °C.

In turn, `CC(=O)c1cc(NS(C)(=O)=O)ccc1O` had a melting point of 121 to 122 °C.

For the molecule `NC(=N[N+](=O)[O-])N1CCN(Cc2ccc(Cl)nc2)C1`, the melting point was in the range of 170 to 174 °C.

The molecule `Cn1ncc2c1-c1c(Oc3ccc(OCc4ccc5ccccc5n4)cc3)sc(C(=O)O)c1CC2` yielded a melting point of 214 to 215 °C.

Molecule `CNC(=O)c1cccc(NC(=O)Cc2ccc(Br)cc2)c1` yielded a melting point of 165 to 166 °C.

As to `OCc1cc2cc(O)c(Cl)c(Cl)c2s1`, the melting point lay within 167 to 169 °C.

The molecule `CCCCCCCCCNC(=O)OCCCNC(=O)OC1CCN(C(=O)Oc2ccc(Oc3ccccc3)cc2)CC1` gave a melting point of 89 to 91 °C.

For `O=C(O)C(Cc1ccccc1)Oc1ccc(-c2ccc(-c3c(Cc4ccccc4)oc4ccccc34)cc2)cc1` (centres undefined), the melting point fell in the range of 164 to 166 °C.

In turn, `CCN(CC)c1nc(N)c2cc(OC)c(OC)cc2n1` returned a melting point of 167 to 169 °C.

Molecule `COCC(=O)c1cnc(C2OCCO2)s1` had a melting point of 65 to 66 °C.

Turning to `CN1CCN(c2ccc(-c3cnc4c(c3)N(Cc3cc(Cl)ccc3C(F)(F)F)CCN4)cn2)CC1`, the melting point lay within 226 to 227 °C.

Molecule `CC(Oc1ccc2nc(-c3ccccc3OC(N)=O)sc2c1)c1c(F)ccc(Cl)c1Cl` (centres undefined) registered a melting point of 210 to 220 °C.

In the case of `CC(C)(C)NC(=O)[C@@H]1CC(Cl)CN1C(=O)C(O)[C@H](Cc1ccccc1)NC(=O)[C@H](CC(N)=O)NC(=O)COc1ccc(NC(=O)OCc2ccccc2)cc1` (some centres undefined), the melting point fell in the range of 113 to 115 °C.

As for `O=C(O)c1cnn2c1NCC=C2c1cccc(C(F)(F)F)c1`, the melting point fell in the range of 175 to 177 °C.

`CCCn1c(COC)nc2c(N)nc3ccc(OCCCN4CCOCC4)cc3c21` gave a melting point of 193 to 196 °C.

In turn, `Cc1cccc(-c2[nH]c(C(C)C)nc2-c2cccc(-c3ccccc3F)c2)n1` showed a melting point of 153 to 155 °C.

As for `Cn1nc(O)ccc1=S`, the melting point turned out to be 203 °C.

With `O=C1Cn2ncnc2-c2sccc2N1`, the melting point is 213 to 215 °C.

`CCCc1nc2c(N)nc(C)c(C)c2n1CCCCN(OC)C(=O)c1ccccc1` yielded a melting point of 136 to 137 °C.

In the case of `CC1Oc2c(F)cc(CN3CCN(c4ccc(C(=O)NC5CC5)cc4)CC3)cc2NC1=O` (centres undefined), the melting point lay in the range of 108 to 110 °C.

`Cc1ccccc1Sc1c(N)cc(C(=O)O)cc1S(N)(=O)=O` had a melting point of 277 °C.

Molecule `CC1(C)CCC(C)(C)c2c1ccc(C=Nc1ccc(C(=O)O)c(O)c1)c2N` gave a melting point of 209 to 210 °C.

In turn, `c1ccc(CN2C[C@H]3CCCC[C@@]3(Cc3ccccc3)C2)cc1` (relative stereo) registered a melting point of 156 to 158 °C.

In the case of `O=C(O)c1ccc(S(=O)(=O)Oc2ccc(-c3ccc(-c4c(Cc5ccccc5)sc5ccccc45)cc3)cc2Br)cc1O`, the melting point lay in the range of 117 to 119 °C.

In turn, `CCCCC(=NNC(=O)OC(C)(C)C)c1ccncc1` displayed a melting point of 156 °C.

Turning to `CCOC(=O)Nc1cc([N+](=O)[O-])ccc1F`, the melting point was 90 to 92 °C.

The molecule `COC(=O)c1cnc(Cl)c2ccccc12` yielded a melting point of 53 to 55 °C.

For the molecule `Cc1cc(C)cc(CC(=O)Nc2[nH]c(=O)[nH]c(=O)c2C(C)C)c1`, the melting point lay in the range of 126 to 127 °C.

As for `CN(C)CC(O)c1cc(-c2ccccc2)on1` (centres undefined), the melting point was 117 to 119 °C.

For `CCCCCCCCn1nnc(NC(=O)Nc2c(C(C)C)cccc2C(C)C)n1`, the melting point lay in the range of 139 to 140 °C.

In turn, `O=C(O)c1cccc2nc3cc(Br)ccc3nc12` came in with a melting point of 268 to 269 °C.

In turn, `C[C@@H](n1cnc2cc(NC(=O)C(F)(F)F)c(F)cc2c1=O)[C@](O)(Cn1cncn1)c1ccc(F)cc1F` came in with a melting point of 130 to 132 °C.

Turning to `COC(=O)/C=C/C=C(c1ccccc1OC)c1ccccc1OC`, the melting point fell in the range of 100 to 102 °C.

Regarding `Nc1nc(O)c2cc(CN(Cc3c[nH]c(=O)[nH]c3=O)c3ccc(C(=O)N[C@@H](CCC(=O)O)C(=O)O)cc3)ccc2n1`, the melting point was 250 to 255 °C.

The molecule `CCOC(=O)c1cn(-c2ccc(F)c(OC)c2)c2c(Cl)c(F)c(F)cc2c1=O` displayed a melting point of 245 to 246 °C.

`CC(C)(C)c1cc(Nc2ccccc2C#N)cc(C(C)(C)C)c1O` had a melting point of 172 °C.

The molecule `Clc1cc(Nn2cccc2)ncn1` returned a melting point of 196 to 198 °C.

`N=C1NC(=O)C(c2ccccc2)S1` (centres undefined) came in with a melting point of 249 to 252 °C.

The molecule `Cc1cc(CC(=O)NCc2cccc3c2C(=O)N(C2CCC(=O)NC2=O)C3=O)c(C)o1` (centres undefined) came in with a melting point of 193 to 195 °C.

In turn, `O=C1C(=Cc2ccc([N+](=O)[O-])s2)CCc2cc(OCCn3ccnc3)ccc21` displayed a melting point above 240 °C.

As for `O=C(Nc1ccc2c(c1)OCCO2)NC12CC3CC(CC(C3)C1)C2`, the melting point was 230 to 236 °C.

Consider `CC#CCOc1ccc(S(=O)(=O)C(C(=O)NO)C2CCN(C(=O)c3ccccc3)CC2)cc1` (centres undefined), for which the melting point was found to be 224 °C.

Turning to `CCCOc1ccc(S(=O)(=O)N2CCN(CC)CC2)cc1-c1nc2cc3ncn(Cc4cccc(F)c4)c3cc2c(=O)[nH]1`, the melting point was in the range of 115 to 117 °C.

The molecule `O=C(O)c1ccc(-c2ccncc2)cc1[N+](=O)[O-]` had a melting point of 314 to 316 °C.

For the molecule `O=C(O)c1ccc(NC(=O)c2ccc3c(c2)SCCCC3)cc1`, the melting point fell in the range of 261 to 262 °C.

For the molecule `O=C1OC(c2ccccc2)(c2ccc(-c3ccccc3)cc2)C(O)=C1OCc1ccccc1` (centres undefined), the melting point is 190 to 195 °C.

In turn, `COc1ccc(S(N)(=O)=O)cc1C(=O)Cl` came in with a melting point of 148 to 150 °C.

`C[Si](C)(C)C#Cc1ccc([N+](=O)[O-])cc1` showed a melting point of 95 to 100 °C.

In the case of `CN(C)C(=O)c1cc2c(OC[C@H](O)CN3CCC(c4ccc5ccccc5c4)CC3)cccc2[nH]1`, the melting point lay in the range of 158 to 160 °C.

In turn, `COc1ccc2c(c1)COc1c-2ccc2cc(OC)ccc12` displayed a melting point of 175 to 178 °C.

The molecule `O=C(O)Cc1cccc(OCc2ccc3oc([N+](=O)[O-])c(-c4ccccc4)c3c2)c1` gave a melting point of 144 to 145 °C.

`CC(=O)c1cc2sc(N)c(C#N)c2s1`: the melting point stood at 285 °C.

`CN(Cc1ccccc1)CC1Nc2ccccc2Cn2cccc21` (centres undefined): the melting point is 147 to 149 °C.

Regarding `CS(=O)c1cccc2c3c(n(Cc4ccc(Cl)cc4)c12)C(CC(=O)O)CCC3` (centres undefined), the melting point fell in the range of 119 to 120 °C.

`Cn1c(CC(=O)O)ccc1C(=O)c1ccc(C#N)cc1` showed a melting point of 196 to 198 °C.

The molecule `CCCCCCCCCCCCCCCCSCC(CNS(=O)(=O)CCCI)n1nnnc1C` (centres undefined) registered a melting point of 63.5 to 65.5 °C.

For the molecule `CS(=O)(=O)N1CCn2c(nc3c(N)nc4cc(Br)ccc4c32)C1`, the melting point was 315 to 317 °C.

`COc1ccc(C=CC(=O)N[C@@H](Cc2ccccc2)C(=O)CSCc2ccsc2)c(OC)c1`: the melting point was 142 to 143 °C.

Turning to `O=C(Nc1cc(Cl)cc(Cl)c1)c1cc(F)ccc1O`, the melting point was 258 to 260 °C.

In turn, `CS(=O)(=O)c1c(C(N)=NO)nn(-c2c(Cl)cc(C(F)(F)F)cc2Cl)c1N` returned a melting point of 132 to 134 °C.

The molecule `CCCc1c[nH]c([C@@H]2Cc3ccccc3N2C(C)=O)n1` displayed a melting point of 174 to 175 °C.

Molecule `Cc1ccc(S(=O)(=O)N2C3=NC(C)(C)N(C)C(=O)N3c3ccccc32)cc1` displayed a melting point of 147 to 149 °C.

`Cc1nnc(C(C)(C)C)c(=O)n1N` showed a melting point of 155 to 157 °C.

On to `Cc1ccc(S(=O)(=O)OCC2COc3ccc([N+](=O)[O-])c(C=CC=O)c3O2)cc1` (centres undefined), for which the melting point lay in the range of 138 to 140 °C.

The molecule `CC(=O)Oc1ccc(CC(=O)Nc2cccc(/C=C/c3nc(C4CCC4)cs3)c2)c(C(=O)O)c1` yielded a melting point of 176 to 179 °C.

The molecule `CC(=O)Nc1ccc(S(=O)(=O)NCCCN2CCOCC2)cc1` returned a melting point of 97 to 98 °C.

Take `O=c1nc(-c2ccc(F)cc2)c2c([nH]1)CCCC2`: the melting point fell in the range of 248 to 253 °C.

In turn, `COc1cc2ncnc(N3CCN(C(=O)NCc4cnc(C)cn4)CC3)c2cc1OC` returned a melting point of 202 to 204 °C.

In the case of `CC(C)C1CCC(C)(OC(=O)OC2(C)CCC(C(C)C)CC2)CC1` (centres undefined), the melting point is 101 to 102 °C.
